Data on 44 molecules can be found in ChEMBL document CHEMBL1909281, “FDA-approved drug labeling for the study of drug-induced liver injury” (Drug Discov Today, 2011).

Each structure is given as a SMILES string.

In one data set the test system is Hepatotoxicity. The experiment in a line: FDA Liver Toxicity Knowledge Base Benchmark Dataset (LTKB-BD) drugs of most concern for DILI.
Conditions: not given
In the case of `O=C1CN(/N=C/c2ccc(-c3ccc([N+](=O)[O-])cc3)o2)C(O)=N1` [DANTROLENE], the “LTKB_BD DILI severity score” value was determined as 8. Turning to `C#C[C@]1(O)CC[C@H]2[C@@H]3CCC4=Cc5oncc5C[C@]4(C)[C@H]3CC[C@@]21C` [DANAZOL], the “LTKB_BD DILI severity score” value is given as 8. Regarding `Cc1nnc(C(C)C)n1[C@@H]1C[C@H]2CC[C@@H](C1)N2CC[C@H](NC(=O)C1CCC(F)(F)CC1)c1ccccc1` [MARAVIROC], the “LTKB_BD DILI severity score” value worked out at 3. `CC[C@@H](CO)NCCN[C@@H](CC)CO` [ETHAMBUTOL]: the “LTKB_BD DILI severity score” value was 8. Still for that read-out and setting: the value for `CC1=C(CC(=O)O)c2cc(F)ccc2/C1=C\c1ccc([S+](C)[O-])cc1` (centres undefined) was 8; that for `Cc1cn([C@H]2C=C[C@@H](CO)O2)c(=O)[nH]c1=O` [STAVUDINE] was 8; that for `CC(C(=O)O)c1cccc(Oc2ccccc2)c1` (centres undefined) [FENOPROFEN] was 8. Turning to `CC(c1cc2ccccc2s1)N(O)C(N)=O` (centres undefined) [ZILEUTON], the “LTKB_BD DILI severity score” value is given as 5.

Regarding `Cc1ccnc2c1NC(=O)c1cccnc1N2C1CC1` [NEVIRAPINE], the “LTKB_BD DILI severity score” value was determined as 8.

Consider `Cc1cc(NS(=O)(=O)c2ccc(N)cc2)no1` [SULFAMETHOXAZOLE], for which the “LTKB_BD DILI severity score” value was 7. For the molecule `Nc1ccc(C(=O)O)c(O)c1` [AMINOSALICYLIC ACID], the “LTKB_BD DILI severity score” value is given as 5. With `CCN(CC)CCNC(=O)c1c(C)[nH]c(/C=C2\C(=O)Nc3ccc(F)cc32)c1C` [SUNITINIB], the “LTKB_BD DILI severity score” value is 8.

`CC(O)(CS(=O)(=O)c1ccc(F)cc1)C(=O)Nc1ccc(C#N)c(C(F)(F)F)c1` (centres undefined) [BICALUTAMIDE]: the “LTKB_BD DILI severity score” value was determined as 8. For `CC(=O)O[C@@]12CO[C@@H]1C[C@H](O)[C@@]1(C)C(=O)[C@H](O)C3=C(C)[C@@H](OC(=O)[C@H](O)[C@@H](NC(=O)OC(C)(C)C)c4ccccc4)C[C@@](O)([C@@H](OC(=O)c4ccccc4)[C@H]21)C3(C)C.O.O.O` [DOCETAXEL], the “LTKB_BD DILI severity score” value was found to be 8. In the case of `C[C@]12C/C(=C/O)C(=O)C[C@@H]1CC[C@@H]1[C@@H]2CC[C@@]2(C)[C@H]1CC[C@]2(C)O` [OXYMETHOLONE], the “LTKB_BD DILI severity score” value is 8. Same read-out and setting: as for `O=C1CC[C@@]2(O)[C@H]3Cc4ccc(O)c5c4[C@@]2(CCN3CC2CC2)[C@H]1O5` [NALTREXONE], the figure is 3. On the same count and under the same terms, the value for `NNC(=O)c1ccncc1` [ISONIAZID] was 8. With `CC(=O)N1CCN(c2ccc(OCC3COC(Cn4ccnc4)(c4ccc(Cl)cc4Cl)O3)cc2)CC1` (centres undefined) [KETOCONAZOLE], the “LTKB_BD DILI severity score” value came to 8.

For `O=C(O)c1ccc(-n2nc(-c3ccccc3O)nc2-c2ccccc2O)cc1` [DEFERASIROX], the “LTKB_BD DILI severity score” value is 7. On the same count and under the same terms, the value for `Nc1nc(NC2CC2)c2ncn([C@H]3C=C[C@@H](CO)C3)c2n1` [ABACAVIR] was 8. The same measure, in the same setting: the value for `NC(=O)N1c2ccccc2C=Cc2ccccc21` [CARBAMAZEPINE] was 7. On the same count and under the same terms, as for `COc1cc(C(=O)NS(=O)(=O)c2ccccc2C)ccc1Cc1cn(C)c2ccc(NC(=O)OC3CCCC3)cc12` [ZAFIRLUKAST], the figure is 8; as for `CCC[C@@]1(CCc2ccccc2)CC(O)=C([C@H](CC)c2cccc(NS(=O)(=O)c3ccc(C(F)(F)F)cn3)c2)C(=O)O1`, 8; as for `CCc1nn(CCCN2CCN(c3cccc(Cl)c3)CC2)c(=O)n1CCOc1ccccc1` [NEFAZODONE], 8.

For `CC(C)(C)NC(=O)[C@@H]1CN(Cc2cccnc2)CCN1C[C@@H](O)C[C@@H](Cc1ccccc1)C(=O)N[C@H]1c2ccccc2C[C@H]1O.O`, the “LTKB_BD DILI severity score” value is reported as 8. With `Cc1cn([C@H]2C[C@H](N=[N+]=[N-])[C@@H](CO)O2)c(=O)[nH]c1=O` [ZIDOVUDINE], the “LTKB_BD DILI severity score” value amounted to 8.

Consider `CN(Cc1cnc2nc(N)nc(N)c2n1)c1ccc(C(=O)N[C@@H](CCC(=O)O)C(=O)O)cc1` [METHOTREXATE], for which the “LTKB_BD DILI severity score” value worked out at 3. Take `C[C@](N)(Cc1ccc(O)c(O)c1)C(=O)O` [METHYLDOPA]: the “LTKB_BD DILI severity score” value is recorded as 8. Still for that read-out and setting: the value for `COc1ccc(CCN(C)CCCC(C#N)(c2ccc(OC)c(OC)c2)C(C)C)cc1OC` (centres undefined) was 4. Regarding `Nc1ccn([C@@H]2CS[C@H](CO)O2)c(=O)n1` [LAMIVUDINE], the “LTKB_BD DILI severity score” value was determined as 8. Same read-out and setting: as for `CC(C)C(=O)Nc1ccc([N+](=O)[O-])c(C(F)(F)F)c1` [FLUTAMIDE], the figure is 8; as for `CCc1cccc2c3c([nH]c12)C(CC)(CC(=O)O)OCC3` (centres undefined) [ETODOLAC], 8; as for `CCCCc1oc2ccccc2c1C(=O)c1cc(I)c(OCCN(CC)CC)c(I)c1` [AMIODARONE], 8. On the same count and under the same terms, as for `NC(=O)OCC(COC(N)=O)c1ccccc1` [FELBAMATE], the figure is 7. On the same count and under the same terms, the value for `O=C(O)c1cn(C2CC2)c2cc(N3CCNCC3)c(F)cc2c1=O` [CIPROFLOXACIN] was 7; that for `COc1cc(C)c(/C=C/C(C)=C/C=C/C(C)=C/C(=O)O)c(C)c1C` [ACITRETIN] was 5; that for `CS(=O)(=O)CCNCc1ccc(-c2ccc3ncnc(Nc4ccc(OCc5cccc(F)c5)c(Cl)c4)c3c2)o1` [LAPATINIB] was 8. Turning to `CN(C/C=C/C#CC(C)(C)C)Cc1cccc2ccccc12` [TERBINAFINE], the “LTKB_BD DILI severity score” value is on record as 8.

The same data set, now with this note: Liver.
Take `O=C1CN(/N=C/c2ccc([N+](=O)[O-])o2)C(=O)N1` [NITROFURANTOIN]: the “LTKB_BD DILI severity score” value is given as 8.

For `OC(Cn1cncn1)(Cn1cncn1)c1ccc(F)cc1F` [FLUCONAZOLE], the “LTKB_BD DILI severity score” value is reported as 8. On the same count and under the same terms, as for `Nc1ccn([C@@H]2O[C@H](CO)[C@@H](O)[C@@H]2O)c(=O)n1` [CYTARABINE], the figure is 3; as for `Clc1ccccc1CN1CCc2sccc2C1` [TICLOPIDINE], 4; as for `CC1=NN(c2ccc(C)c(C)c2)C(=O)/C1=N\Nc1cccc(-c2cccc(C(=O)O)c2)c1O` [ELTROMBOPAG], 6. On to `CCCc1cc(=O)[nH]c(=S)[nH]1` [PROPYLTHIOURACIL], for which the “LTKB_BD DILI severity score” value came out at 8.
